In US9688642B2, “Substituted pyrazines as GPR40 agonists” (Janssen Pharmaceutica NV, priority 2014, dated 2017):
pEC50: −log10 of the molar value. Where “and” joins values, the source holds several entries; their conditions need not be identical. Identical values can stand only once.

Columns and labels:
Male SD rats = assay: Oral glucose tolerance test; assay type: in vivo, rat; conditions: dosed 30 min prior to oGTT (glucose 2 g/kg po), blood glucose AUC t=0 to t=120 minutes vs vehicle
Procedure: Male SD rats (200-250 g) were housed 2 per cage in a temperature-controlled room with a 12-hour light/dark cycle. They were allowed ad libitum access to water and fed with normal rodent chow. The night before the oral glucose tolerance test (oGTT), the rats were transferred to clean cages and fasted overnight. On the morning of the oGTT, the rats were weighed and randomized into groups based on fasted blood glucose and body weight. Rats were dosed with vehicle (0.5% methocel) or compounds thirty min prior to the oGTT (glucose, 2 g/kg, po). Blood was collected from the tail vein at 0, 10, 30, 60 and 120 minutes after glucose challenge to measure blood glucose; plasma was used to determine insulin levels.

human GPR40 = human GPR40 (Homo sapiens (Human), UniProt O14842); assay: GPR40 calcium flux assay, HEK293 cells stably expressing human GPR40; assay type: cell-based; conditions: transfected HEK293 cells stably expressing human GPR40; individual determinations listed; read-out: hGPR40 Ca2+ Assay EC50
Sequence of human GPR40 (O14842 whole entry): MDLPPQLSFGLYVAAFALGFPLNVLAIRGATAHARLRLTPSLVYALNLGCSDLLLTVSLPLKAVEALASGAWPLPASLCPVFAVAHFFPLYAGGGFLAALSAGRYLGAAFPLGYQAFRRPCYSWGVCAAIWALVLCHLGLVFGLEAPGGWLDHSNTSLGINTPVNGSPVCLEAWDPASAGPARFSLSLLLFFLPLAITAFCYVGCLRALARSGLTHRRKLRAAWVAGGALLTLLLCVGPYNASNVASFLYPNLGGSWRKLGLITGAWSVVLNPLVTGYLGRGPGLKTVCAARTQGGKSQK
Procedure: (§1) Compounds were tested in a calcium flux assay using transfected HEK293 cells stably expressing either human GPR40 or rat GPR40. Human GPR40 expressing cells were cultured in DMEM-High Glucose media supplemented with 10% fetal bovine serum, 1×L-Glutamine, 1× Penicillin/Streptomycin and 500 μg/mL G418. Rat GPR40 expressing cells were cultured in DMEM-High Glucose media supplemented with 10% fetal bovine serum and 1 μg/mL puromycin. Cells were plated into poly-D-lysine coated 384-well plates and cultured overnight in a 37° C. humidified tissue culture incubator under 5% CO2/90% O2 atmosphere. On the day of the experiment, the culture media was replaced with assay buffer (HBSS, 20 mM HEPES, 0.1% BSA) and the cells incubated at 37° C. for 1 h. Calcium-sensitive fluorescent dye (Fluo 8 No-Wash Calcium Dye, ABD Bioquest) was then added and the cells incubated for another 30 min at 37° C. followed by 15 min at room temperature while protected from the light. The cell plate and a plate of diluted compounds of Formula (I) were loaded into a fluorescent plate reader that added compounds onto the cells while measuring the fluorescence intensity of each well. The plate reader recorded fluorescence intensity at 1 second intervals for 8 min and provided the data for analysis in an Excel format. EC50 values were calculated using Prism (GraphPad) software.

rat GPR40 = rat GPR40 (Rattus norvegicus (Rat), UniProt Q8K3T4); assay: GPR40 calcium flux assay, HEK293 cells stably expressing rat GPR40; assay type: cell-based; conditions: transfected HEK293 cells stably expressing rat GPR40; individual determinations listed; read-out: rGPR40 Ca2+ Assay EC50
Sequence of rat GPR40 (Q8K3T4 whole entry): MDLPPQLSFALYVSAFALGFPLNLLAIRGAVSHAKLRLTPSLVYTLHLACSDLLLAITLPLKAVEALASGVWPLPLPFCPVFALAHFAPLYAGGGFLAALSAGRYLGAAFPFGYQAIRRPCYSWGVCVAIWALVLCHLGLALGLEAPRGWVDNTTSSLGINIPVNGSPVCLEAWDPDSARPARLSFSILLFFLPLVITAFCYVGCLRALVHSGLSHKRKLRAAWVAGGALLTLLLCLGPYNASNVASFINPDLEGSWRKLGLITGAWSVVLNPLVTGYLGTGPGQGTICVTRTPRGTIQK
Procedure: as §1

| SMILES | Percent Lowering of Glucose (AUC compound vs. AUC Vehicle) (Male SD rats) | EC50 (human GPR40) | EC50 (rat GPR40) | pEC50 (human GPR40) | pEC50 (rat GPR40) |
| --- | --- | --- | --- | --- | --- |
| COc1ccc(F)c(-c2ncc(COc3cccc([C@@H](CC(=O)O)C4CC4)c3)nc2C2=CCCC2(C)C)c1 [Cpd 30, (3S)-3-cyclopropyl-3-[3-[[6-(5,5-dimethylcyclopenten-1-yl)-5-(2-fluoro-5-methoxy-phenyl)pyrazin-2-yl]methoxy]phenyl]propanoic acid] | 87% | – | – | – | – |
| COc1ccc(F)c(-c2ncc(COc3cccc([C@@H](CC(=O)O)C4CC4)c3)nc2OC2CCCC2)c1 [Cpd 13, (3S)-3-[3-[[6-(cyclopentoxy)-5-(2-fluoro-5-methoxy-phenyl)pyrazin-2-yl]methoxy]phenyl]-3-cyclopropyl-propanoic acid] | 84% | 19 nM (2×) and 20 nM and 10 nM and 8 nM | 31 nM and 30 nM (2×) and 53 nM and 33 nM | – | – |
| COc1cc(-c2ncc(COc3cccc([C@@H](CC(=O)O)C4CC4)c3)nc2OC2CCCCC2)c(F)cn1 [Cpd 9, (3S)-3-[3-[[6-(cyclohexoxy)-5-(5-fluoro-2-methoxy-4-pyridyl)pyrazin-2-yl]methoxy]phenyl]-3-cyclopropyl-propanoic acid] | – | – | – | 8.15 | 7.70 and 7.80 |
| COc1ccc(F)c(-c2ncc(COc3cccc([C@@H](CC(=O)O)C4CC4)c3)nc2N2CCOCC2)c1 [Cpd 45, (3S)-3-cyclopropyl-3-[3-[[5-(2-fluoro-5-methoxy-phenyl)-6-morpholinopyrazin-2-yl]methoxy]phenyl]propanoic acid] | – | – | – | 7.47 | 6.86 and 6.87 |
| COc1ccc(F)c(-c2ncc(COc3cccc([C@@H](CC(=O)O)C4CC4)c3)nc2C(C)C)c1 [Cpd 37, (3S)-3-cyclopropyl-3-[3-[[5-(2-fluoro-5-methoxy-phenyl)-6-isopropyl-pyrazin-2-yl]methoxy]phenyl]propanoic acid] | – | – | – | 7.35 and 7.36 | 6.85 and 6.96 |
| COc1ccc(F)c(-c2ncc(COc3cccc([C@@H](CC(=O)O)C4CC4)c3)nc2-c2cc(C)cc(C)c2)c1 [Cpd 10, (3S)-3-cyclopropyl-3-[3-[[6-(3,5-dimethylphenyl)-5-(2-fluoro-5-methoxy-phenyl)pyrazin-2-yl]methoxy]phenyl]propanoic acid] | – | – | – | 8.10 and 8.15 | 7.48 and 7.54 |
| COc1ccc(F)c(-c2ncc(COc3cccc([C@@H](CC(=O)O)C4CC4)c3)nc2OC2COC2)c1 [Cpd 41, (3S)-3-cyclopropyl-3-[3-[[5-(2-fluoro-5-methoxy-phenyl)-6-(oxetan-3-yloxy)pyrazin-2-yl]methoxy]phenyl]propanoic acid] | – | – | – | 7.10 and 7.16 | 6.26 and 6.38 |
| COc1ccc(F)c(-c2ncc(COc3cccc([C@@H](CC(=O)O)C4CC4)c3)nc2-c2cccc(C(C)C)c2)c1 [Cpd 23, (3S)-3-cyclopropyl-3-[3-[[5-(2-fluoro-5-methoxy-phenyl)-6-(3-isopropylphenyl)pyrazin-2-yl]methoxy]phenyl]propanoic acid] | – | – | – | 7.64 and 7.85 | 7.24 and 7.30 |
| COc1ccc(F)c(-c2ncc(COc3cccc([C@@H](CC(=O)O)C4CC4)c3)nc2N2CC3(CCC3)C2)c1 [Cpd 6, (3S)-3-[3-[(6-[2-azaspiro[3.3]heptan-2-yl]-5-(2-fluoro-5-methoxyphenyl)pyrazin-2-yl)methoxy]phenyl]-3-cyclopropylpropanoic acid] | – | – | – | 8.30 and 8.40 | 7.77 and 7.85 |
| COc1ccc(F)c(-c2ncc(COc3cccc([C@@H](CC(=O)O)C4CC4)c3)nc2OCC2CC(C)(C)C2)c1 [Cpd 42, (3S)-3-cyclopropyl-3-[3-[[6-[(3,3-dimethylcyclobutyl)methoxy]-5-(2-fluoro-5-methoxy-phenyl)pyrazin-2-yl]methoxy]phenyl]propanoic acid] | – | – | – | 7.77 and 7.85 | 7.49 and 7.54 |
| COc1ccc(F)c(-c2ncc(COc3cccc([C@@H](CC(=O)O)C4CC4)c3)nc2C(C)C(F)(F)F)c1 (stereo partly drawn) [Cpd 40, (3S)-3-cyclopropyl-3-[3-[[5-(2-fluoro-5-methoxy-phenyl)-6-(2,2,2-trifluoro-1-methyl-ethyl)pyrazin-2-yl]methoxy]phenyl]propanoic acid] | – | – | – | 7.19 and 7.28 | 6.60 and 6.63 and 6.64 |
| COc1cc(-c2ncc(COc3cccc([C@@H](CC(=O)O)C4CC4)c3)nc2-c2ccc(C)s2)c(F)cn1 [Cpd 28, (3S)-3-cyclopropyl-3-[3-[[5-(5-fluoro-2-methoxy-4-pyridyl)-6-(5-methyl-2-thienyl)pyrazin-2-yl]methoxy]phenyl]propanoic acid] | – | – | – | 7.59 and 7.64 | 7.24 and 7.27 |
| COc1cc(-c2ncc(COc3cccc([C@@H](CC(=O)O)C4CC4)c3)nc2C2=CCCC2(C)C)c(F)cn1 [Cpd 15, (3S)-3-cyclopropyl-3-[3-[[6-(5,5-dimethylcyclopenten-1-yl)-5-(5-fluoro-2-methoxy-4-pyridyl)pyrazin-2-yl]methoxy]phenyl]propanoic acid] | – | – | – | 7.82 and 8.15 | 7.68 and 7.82 |
| COc1ccc(F)c(-c2ncc(COc3cccc([C@@H](CC(=O)O)C4CC4)c3)nc2N(C)C)c1 [Cpd 38, (3S)-3-cyclopropyl-3-[3-[[6-(dimethylamino)-5-(2-fluoro-5-methoxy-phenyl)pyrazin-2-yl]methoxy]phenyl]propanoic acid] | – | – | – | 7.26 and 7.38 | 6.40 |
| COc1ccc(F)c(-c2ncc(COc3cccc([C@@H](CC(=O)O)C4CC4)c3)nc2OC2CC(C)(C)CC(C)(C)C2)c1 [Cpd 24, (3S)-3-cyclopropyl-3-[3-[[5-(2-fluoro-5-methoxy-phenyl)-6-(3,3,5,5-tetramethylcyclohexoxy)pyrazin-2-yl]methoxy]phenyl]propanoic acid] | – | – | – | 7.62 and 7.80 and 7.40 | 6.73 and 6.75 and 6.74 |
| COc1cc(-c2ncc(COc3cccc([C@@H](CC(=O)O)C4CC4)c3)nc2CC(C)C)c(F)cn1 [Cpd 2, (3S)-3-cyclopropyl-3-[3-[[5-(5-fluoro-2-methoxy-4-pyridyl)-6-isobutyl-pyrazin-2-yl]methoxy]phenyl]propanoic acid] | 87% | 2 nM (2×) and 1 nM and 3 nM | 7 nM (2×) and 8 nM and 12 nM | – | – |
| COc1ccc(F)c(-c2ncc(COc3cccc([C@@H](CC(=O)O)C4CC4)c3)nc2OC2CC(C)(C)OC(C)(C)C2)c1 [Cpd 26, (3S)-3-cyclopropyl-3-[3-[[5-(2-fluoro-5-methoxy-phenyl)-6-(2,2,6,6-tetramethyltetrahydropyran-4-yl)oxy-pyrazin-2-yl]methoxy]phenyl]propanoic acid] | – | – | – | 7.68 | 6.95 and 6.97 |
| COc1ccc(F)c(-c2ncc(COc3cccc([C@@H](CC(=O)O)C4CC4)c3)nc2C=C(C)C)c1 [Cpd 8, (3S)-3-cyclopropyl-3-[3-[[5-(2-fluoro-5-methoxy-phenyl)-6-(2-methylprop-1-enyl)pyrazin-2-yl]methoxy]phenyl]propanoic acid] | 91% | – | – | 8.00 and 8.05 and 7.85 and 8.10 and 8.22 | 7.41 and 7.54 and 7.12 and 7.30 |
| COc1cc(-c2ncc(COc3cccc([C@@H](CC(=O)O)C4CC4)c3)nc2OCC(C)C)c(F)cn1 [Cpd 12, (3S)-3-cyclopropyl-3-[3-[[5-(5-fluoro-2-methoxy-4-pyridyl)-6-isobutoxy-pyrazin-2-yl]methoxy]phenyl]propanoic acid] | – | – | – | 7.96 and 8.10 | 7.62 and 7.68 |
| COc1ccc(F)c(-c2ncc(COc3cccc([C@@H](CC(=O)O)C4CC4)c3)nc2OCC(C)C)c1 [Cpd 14, (3S)-3-cyclopropyl-3-[3-[[5-(2-fluoro-5-methoxy-phenyl)-6-isobutoxy-pyrazin-2-yl]methoxy]phenyl]propanoic acid] | – | 10 nM (2×) and 9 nM | – | – | 7.80 and 7.49 and 7.51 and 7.68 and 7.74 |
| COc1ccc(F)c(-c2ncc(COc3cccc([C@@H](CC(=O)O)C4CC4)c3)nc2-c2sccc2C)c1 [Cpd 33, (3S)-3-cyclopropyl-3-[3-[[5-(2-fluoro-5-methoxy-phenyl)-6-(3-methyl-2-thienyl)pyrazin-2-yl]methoxy]phenyl]propanoic acid] | – | – | – | 7.47 and 7.57 | 6.92 and 6.96 and 7.00 and 7.09 |
